According to PubChem BioAssay AID248 (DTP/NCI, 2004):
Where “and” joins values, the source holds several entries; their conditions need not be identical. Identical values can stand only once. Inconclusive results and toxic doses are left out. No stated cut-off is given here; in the data, active means T/C of 150% or more; inactive means T/C below 125%.

Tested on: L1210 leukemia ip in BDF1 mice, survival T/C
Test: NCI In Vivo Anticancer Drug Screen. Data for tumor model L1210 Leukemia (intraperitoneal) in B6D2F1 (BDF1) mice
Conditions: endpoint: mean survival time, higher = longer survival
Method in brief: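 Transplantable tumor model; survival measured in treated vs vehicle control mice. Value = treated/control.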

[1] = dose: 50.0 mg/kg/injection, schedule: Q01DX009 (ip), vehicle: saline with Tween-80
[2] = dose: 100.0 mg/kg/injection, schedule: Q01DX009 (ip), vehicle: saline with Tween-80
[3] = dose: 100.0 mg/kg/injection, schedule: Q04DX003 (ip), vehicle: saline with Tween-80
[4] = dose: 200.0 mg/kg/injection, schedule: Q01DX009 (ip), vehicle: saline with Tween-80
[5] = dose: 200.0 mg/kg/injection, schedule: Q04DX003 (ip), vehicle: saline with Tween-80
[6] = dose: 400.0 mg/kg/injection, schedule: Q04DX002 (ip), vehicle: saline with Tween-80
[7] = dose: 400.0 mg/kg/injection, schedule: Q01DX009 (ip), vehicle: saline with Tween-80
[8] = dose: 400.0 mg/kg/injection, schedule: Q04DX003 (ip), vehicle: saline with Tween-80
[9] = dose: 100.0 mg/kg/injection, schedule: Q04DX002 (ip), vehicle: saline with Tween-80
[10] = dose: 100.0 mg/kg/injection, schedule: Q01DX009 (ip), vehicle: Klucel (hydroxypropylcellulose) (HPC)
[11] = dose: 200.0 mg/kg/injection, schedule: Q01DX009 (ip), vehicle: Klucel (hydroxypropylcellulose) (HPC)
[12] = dose: 400.0 mg/kg/injection, schedule: Q01DX009 (ip), vehicle: Klucel (hydroxypropylcellulose) (HPC)
[13] = dose: 100.0 mg/kg/injection, schedule: Q01DX001 (ip), vehicle: saline with Tween-80

Measured: T/C

CCOC(=O)CC(=O)c1ccc(C(=O)CC(=O)O)cc1 (tested in a mixture with another compound)
inactive: dose: 25.6 mg/kg/injection, schedule: Q04DX002 (ip), vehicle: saline with Tween-80 87 % of control | [1] 89 % of control | dose: 64.0 mg/kg/injection, schedule: Q04DX002 (ip), vehicle: saline with Tween-80 95 % of control | [2] 96 % of control | [3] 90 % of control | dose: 160.0 mg/kg/injection, schedule: Q04DX002 (ip), vehicle: saline with Tween-80 91 % of control | [4] 88 % of control | [5] 87 % of control | [6] 87 % of control

Cc1ccc(S(=O)(=O)Nc2ccc(C(=O)Cl)cc2)cc1
inactive: dose: 100.0 mg/kg/injection, schedule: Q04DX003 (ip), vehicle: gum acacia 95 % of control | dose: 200.0 mg/kg/injection, schedule: Q04DX003 (ip), vehicle: gum acacia 106 % of control | dose: 400.0 mg/kg/injection, schedule: Q04DX003 (ip), vehicle: gum acacia 90 % of control

COC(OC)c1[nH]c(=S)[nH]c(=O)c1CCCc1ccccc1
inactive: [2] 94 % of control | [3] 100 % of control | [4] 105 % of control | [5] 100 % of control | [7] 86 % of control | [8] 96 % of control

Clc1c(Cl)c(Cl)c([S][Pb]([c]2ccccc2)([c]2ccccc2)[c]2ccccc2)c(Cl)c1Cl
inactive: dose: 6.25 mg/kg/injection, schedule: Q01DX009 (ip), vehicle: saline with Tween-80 101 % of control | dose: 12.5 mg/kg/injection, schedule: Q01DX009 (ip), vehicle: saline with Tween-80 103 % of control | dose: 25.0 mg/kg/injection, schedule: Q01DX009 (ip), vehicle: saline with Tween-80 104 % of control and 88 % of control | dose: 25.0 mg/kg/injection, schedule: Q04DX002 (ip), vehicle: saline with Tween-80 96 % of control | dose: 50.0 mg/kg/injection, schedule: Q04DX002 (ip), vehicle: saline with Tween-80 99 % of control | [9] 86 % of control and 88 % of control

O=C1Nc2ccccc2C1=NC1CCCC1
inactive: dose: 100.0 mg/kg/injection, schedule: Q01DX001 (ip), vehicle: saline 93 % of control | dose: 200.0 mg/kg/injection, schedule: Q01DX001 (ip), vehicle: saline 98 % of control | dose: 400.0 mg/kg/injection, schedule: Q01DX001 (ip), vehicle: saline 97 % of control

CN(C)c1ccc(C=O)c([N+](=O)[O-])c1
inactive: [10] 97 % of control | [11] 101 % of control | [12] 105 % of control

N#Cc1[nH]cnc1NN=NCCCl
inactive: dose: 12.5 mg/kg/injection, schedule: Q01DX001 (ip), vehicle: saline with Tween-80 109 % of control | dose: 25.0 mg/kg/injection, schedule: Q01DX001 (ip), vehicle: saline with Tween-80 104 % of control | dose: 50.0 mg/kg/injection, schedule: Q01DX001 (ip), vehicle: saline with Tween-80 116 % of control | [13] 118 % of control

C=C(C)C(=O)Oc1ccccc1-c1ccccc1
inactive: dose: 100.0 mg/kg/injection, schedule: Q04DX002 (ip), vehicle: Klucel (hydroxypropylcellulose) (HPC) 100 % of control | dose: 200.0 mg/kg/injection, schedule: Q04DX002 (ip), vehicle: Klucel (hydroxypropylcellulose) (HPC) 96 % of control | dose: 400.0 mg/kg/injection, schedule: Q04DX002 (ip), vehicle: Klucel (hydroxypropylcellulose) (HPC) 92 % of control

O=C1CSC(c2ccccc2)N1 (configuration not stated)
inactive: dose: 44.0 mg/kg/injection, schedule: Q04DX003 (ip), vehicle: Klucel (hydroxypropylcellulose) (HPC) 94 % of control and 103 % of control | dose: 67.0 mg/kg/injection, schedule: Q04DX003 (ip), vehicle: Klucel (hydroxypropylcellulose) (HPC) 98 % of control and 100 % of control | [10] 98 % of control | dose: 100.0 mg/kg/injection, schedule: Q04DX003 (ip), vehicle: Klucel (hydroxypropylcellulose) (HPC) 98 % of control and 100 % of control | dose: 150.0 mg/kg/injection, schedule: Q04DX003 (ip), vehicle: Klucel (hydroxypropylcellulose) (HPC) 98 % of control and 109 % of control | [11] 98 % of control | dose: 200.0 mg/kg/injection, schedule: Q04DX003 (ip), vehicle: Klucel (hydroxypropylcellulose) (HPC) 100 % of control | [12] 95 % of control | dose: 400.0 mg/kg/injection, schedule: Q04DX003 (ip), vehicle: Klucel (hydroxypropylcellulose) (HPC) 105 % of control

COc1cccc(NC(=O)NC(C)(C)C)c1
inactive: [1] 95 % of control and 119 % of control | [13] 106 % of control | [9] 97 % of control and 103 % of control | [3] 105 % of control | dose: 200.0 mg/kg/injection, schedule: Q01DX001 (ip), vehicle: saline with Tween-80 100 % of control | dose: 200.0 mg/kg/injection, schedule: Q04DX002 (ip), vehicle: saline with Tween-80 94 % of control and 100 % of control | [5] 104 % of control | dose: 400.0 mg/kg/injection, schedule: Q01DX001 (ip), vehicle: saline with Tween-80 111 % of control | [7] 103 % of control and 108 % of control | [6] 97 % of control and 86 % of control | [8] 96 % of control

CCOC(=O)CCCc1ccc(N=NN(C)CC(C)C)cc1
inactive: dose: 100.0 mg/kg/injection, schedule: Q01DX001 (ip), vehicle: carboxymethylcellulose (CMC) 107 % of control | dose: 100.0 mg/kg/injection, schedule: Q01DX009 (ip), vehicle: carboxymethylcellulose (CMC) 116 % of control | dose: 200.0 mg/kg/injection, schedule: Q01DX001 (ip), vehicle: carboxymethylcellulose (CMC) 102 % of control | dose: 200.0 mg/kg/injection, schedule: Q01DX009 (ip), vehicle: carboxymethylcellulose (CMC) 107 % of control | dose: 400.0 mg/kg/injection, schedule: Q01DX001 (ip), vehicle: carboxymethylcellulose (CMC) 113 % of control

CCNC(=O)CCC(N)C(=O)O (configuration not stated)
inactive: dose: 100.0 mg/kg/injection, schedule: Q01DX009 (ip), vehicle: saline 97 % of control | dose: 100.0 mg/kg/injection, schedule: Q04DX003 (ip), vehicle: saline 97 % of control | dose: 200.0 mg/kg/injection, schedule: Q01DX009 (ip), vehicle: saline 97 % of control | dose: 200.0 mg/kg/injection, schedule: Q04DX003 (ip), vehicle: saline 101 % of control | dose: 400.0 mg/kg/injection, schedule: Q01DX009 (ip), vehicle: saline 95 % of control | dose: 400.0 mg/kg/injection, schedule: Q04DX003 (ip), vehicle: saline 101 % of control

Nc1cc(I)c2cccnc2c1O
inactive: dose: 6.25 mg/kg/injection, schedule: Q01DX009 (ip), vehicle: saline 101 % of control | dose: 10.0 mg/kg/injection, schedule: Q01DX015 (ip), vehicle: saline 95 % of control | dose: 12.5 mg/kg/injection, schedule: Q01DX009 (ip), vehicle: saline 96 % of control | dose: 20.0 mg/kg/injection, schedule: Q01DX015 (ip), vehicle: saline 87 % of control | dose: 25.0 mg/kg/injection, schedule: Q01DX009 (ip), vehicle: saline 102 % of control | dose: 50.0 mg/kg/injection, schedule: Q01DX009 (ip), vehicle: saline 98 % of control

CCC(C)NC(=O)NC (configuration not stated)
inactive: [10] 100 % of control | [11] 97 % of control | [12] 101 % of control
